Columns and labels:
COS-7 cells = assay: MTT cytotoxicity assay in COS-7 cells (run with SEAP); type: cell-based, green monkey; conditions: Chlorocebus sabaeus, COS-7 test cells of the SEAP assay
Protocol: The MTT assay is a colorimetric method for determining the number of viable cells. Metabolically active cells turn the MIT reagent, (3-(4,5-dimethylthiazol-2-yl)-2,5-diphenyltetrazolium bromide, into purple-colored formazan crystals that are solubilized in dimethyl sulfoxide (DMSO). The MTT reagent is added to MTT (colorless) media. The media is added to the cells and they are incubated for 4 hours. DMSO is added to the cells and mixed. The colored solutions are then read at 540 nm and corrected at 630 nm. The IC50 is estimated by graphing the gathered data.
The cells are analyzed by the MTT assay to compare cytotoxicity to SEAP inhibition. The goal is for the drug to inhibit SEAP without being too toxic.
The MTT assay measures cellular-proliferation and is used to verify that the levels of SEAP activity are not solely due to cytotoxicity. These assays was used in screening for potential drug compound leads as antiviral agents, and particularly, anti-HIV candidates.

[1] = tested on: HeLa (cervical adenocarcinoma); assay: MTS cell viability assay, HeLa; type: cell-based; conditions: Homo sapiens, HeLa, MTS assay; read-out: HeLa IC50
Excerpt: Studies performed regarding cytotoxicity included the well-known MTS, Trypan Blue and MTT protocols. The MTS studies were done using the CellTiter 96®AQueous One Solution Cell Proliferation Assay (Promega Corporation, Madison, Wis. USA). Metabolically active, namely viable, cells turn MTS, a tetrazolium compound (3-(4,5-dimethylthiazol-2-yl)-5-(3-carboxymethoxyphenyl)-2-(4-sulfophenyl)-2H-tetrazolium, inner salt) into colored formazan, which is soluble in tissue culture medium. The measurement of the absorbance of the formazan is read at 490 nm. The ready to use reagent is added directly to the cells in media in 96-well plates, incubated 1-4 hours and the results are recorded by the plate reader. The IC50 is estimated by graphing the gathered data. The IC50 is the concentration of the tested material that inhibits 50% of growth or viability of the tested material compared to a control.
Three cell lines obtained from ATCC and maintained as directed by ATCC were tested: HeLa (cervical adenocarcinoma), A549 (lung carcinoma), and COS-7 (SV40 transformed monkey kidney). Studies of these cell lines are considered to be indicative of the effect of tested substances on mammalian, including human, diseases.
All compounds were dissolved in DMSO and DMSO is used as the placebo. The samples were first dissolved into 10 mM dilutions in DMSO and then diluted further to 5, 1, 0.5, 0.1, 0.05, and 0.01 mM solutions. These solutions were added to the media at a 1% concentration (1 μl to 100 μl media) to treat the cells with 100, 50, 10, 5, 1, 0.5, and 0.1 μM of the compound. […] Solutions were checked before use for precipitation, especially the 10 mM solutions. If there was precipitation, they were warmed 65° C. and added to warmed media.
Wells on a 96-well plate were seeded with 1.5-8×10^4 cells in 100 μl media and incubated overnight. The outside wells of the plate were filled with 200 μl sterile, deionized (DI) water to curb media evaporation. After 24 hours, test chemicals were prepared in media at a concentration of 1% media volume. The test sample media were added, mixing with pipette before adding 100 μl per well. Media was added to the “Media Only” wells. The well plate and its contents were incubated for 24-72 hours, depending on the study conducted. On the thy of the MTS assay, the MTS reagent was removed from the refrigerator and brought to room temperature. Using the multichannel pipette, 20 μl of the MTS reagent was added to each well and incubated for one to four hours. The plate was read at 490 nm with a reference wavelength of 690 nm after one hour in the incubator thereafter until the blank wells were at about 0.2 OD. The results were then scanned into a Microsoft® Excel® template designed to perform all necessary calculations whim data are entered. The data were checked for statistical errors; data points that are within 10% of the mean of the data points for that group were included. The average of the blanks (“Media Only”) were subtracted and the data were inserted into a chart that represents growth response, treated/untreated.

Colon Cancer cell lines = assay: NCI DTP human tumor cell line screen, colon cancer panel; type: cell-based; conditions: Colon Cancer (7 cell lines)
Excerpt: (§1) The United States National Cancer Institute (NCI) provides a developmental therapeutics program (DTP) (http://dtp.nci.nih.gov/branches/btb/ivelsp.html) to screen submitted substances in support of cancer drug discovery. The In Vitro Cell Line Screening Project (IVCLSP) is a dedicated service providing direct support to the DTP anticancer drug discovery program and is designed to screen up to 3,000 compounds per year for potential anticancer activity. The operation of this screen utilizes 60 different human tumor cell lines, representing leukemia, melanoma and cancers of the lung, colon, brain, ovary, breast, prostate, and kidney. The aim is to prioritize for farther evaluation, synthetic compounds or natural product samples showing selective growth inhibition or cell killing of particular tumor cell lines. This screen is unique in that the complexity of a 60 cell line dose response produced by a given compound results in a biological response pattern which can be utilized in pattern recognition algorithms (COMPARE program. See: http://dtp.nci.nih.gov/docs/compare/compare.html). Using these algorithms, it is possible to assign a putative mechanism of action to a test compound, or to determine that the response pattern is unique and not similar to that of any of the standard prototype compounds included in the NCI database. […]

Renal Cancer cell lines = assay: NCI DTP human tumor cell line screen, renal cancer panel; type: cell-based; conditions: Renal Cancer (6 cell lines)
Excerpt: as §1

Prostate cell lines = assay: NCI DTP human tumor cell line screen, prostate panel; type: cell-based; conditions: Prostate (2 cell lines)
Excerpt: as §1

CNS cell lines = assay: NCI DTP human tumor cell line screen, CNS panel; type: cell-based; conditions: CNS (6 cell lines)
Excerpt: as §1

Which IC50 (COS-7 cells) does the source give for `C[C@H](Cc1ccc(OCCCN2CCCCC2)c(OCCCN2CCCCC2)c1)[C@@H](C)Cc1ccc(OCCCN2CCCCC2)c(OCCCN2CCCCC2)c1` [Compound A, 1,4-bis{3,4-bis[3-(piperidin-1-yl)propoxy]phenyl}-2,3-dimethyl-(2R,3S)-butane] here?
The IC50 was 0.7 to 0.9 µM.

And the IC50 [1]?
Its IC50 is 2 to 3 µM.

And the “Mean Growth Percent at 10 μM” value (Colon Cancer cell lines)?
Its value is −94.08%.

What about the “Mean Growth Percent at 10 μM” value (Renal Cancer cell lines) of the same molecule?
Its value is −95.54%.

What about the “Mean Growth Percent at 10 μM” value (Prostate cell lines) of the same molecule?
Its value is −95.47%.

And the “Mean Growth Percent at 10 μM” value (CNS cell lines)?
Its value is −93.97%.

From patent US20150374709A1, “TETRA-SUBSTITUTED NDGA DERIVATIVES VIA ETHER BONDS AND CARBAMATE BONDS AND THEIR SYNTHESIS AND PHARMACEUTICAL USE” (ERIMOS PHARMACEUTICALS LLC, priority 2006, published 2015)
